Results taken from patent publication US10576166B2, “Liver specific delivery of messenger RNA” (TRANSLATE BIO, INC., priority 2009, dated 2020).

How the values were obtained:
[1] = tested on: firefly luciferase protein in livers and spleens; assay: Bioluminescence assay of expressed firefly luciferase in liver and spleen (biodistribution analysis); type: in vivo; details: female CD-1 mice, single 200 μg i.v. dose of encapsulated FFL mRNA, 4 hours post-injection
Method: (§1) All studies were performed using female CD-1 mice of approximately 3-weeks age at the beginning of each experiment. Samples were introduced by a single bolus tail-vein injection of an equivalent total dose of 200 μg of encapsulated FFL mRNA. Four hours post-injection the mice were sacrificed and perfused with saline.
(§2) The liver and spleen of each mouse was harvested, apportioned into three parts, and stored in either, (i) 10% neutral buffered formalin, (ii) snap-frozen and stored at −80° C. for bioluminescence analysis (see below), or for in situ hybridization studies, or (iii) liver sections were isolated in isopentane (2-methylbutane) bath, maintained at −35° C., rinsed with 1×PBS, lightly patted with a kimwipe to remove any excess fluid, placed in the bath for approximately 5-7 minutes, after which the liver was removed, wrapped in foil and stored in a small sterile plastic bag at −80° C. until ready for assay.
The bioluminescence assay was conducted using a Promega Luciferase Assay System (Item # E1500 Promega). […]
The Luciferase Assay Reagent was prepared by adding 10 mL of Luciferase Assay Buffer to Luciferase Assay Substrate and mix via vortex. […] Each plate was inserted into the appropriate chambers using a Molecular Device Flex Station instrument and measure the luminescence (measured in relative light units (RLU)). […]

[2] = tested on: firefly luciferase protein in hepatocytes; assay: Immunohistochemical analysis of liver with anti-firefly antibody; type: in vivo; details: FFL mRNA in lipid transfer vehicle of cholesterol, DOPE, DLinDMA and DMG-PEG2000; treated mice, FIGS. 5B and 5C
Excerpt: FIG. 5 illustrates immunohistochemical staining of mouse livers for the detection of firefly luciferase protein. […] Luciferase protein is observed throughout the cytoplasm of the hepatocytes. The abbreviations (S) and (H) correspond to sinusoidal cells and hepatocytes, respectively.
The FFL mRNA was packaged and delivered via a lipid transfer vehicle formulation consisting of cholesterol, DOPE, DLinDMA, and DMG-PEG2000 in a manner similar to that described supra.
The translation of the FFL mRNA into its respective protein has been successfully identified via immunohistochemical analysis (FIG. 5).

[3] = tested on: codon-optimized firefly luciferase mRNA in liver; assay: In situ hybridization of liver sections with 35S-labeled riboprobes; type: in vivo, CD-1 mice; details: livers of injected animals, 100× magnification, FIG. 4A
Method: as §1, §2
Slide preparation and analysis was performed as follows: Each liver was frozen at −35° C. according to the procedure described above. The frozen livers were cut into 6 micrometer sections and mounted onto glass microscope slides. […]
Photographic development was carried out in Kodak D-19. Sections were counterstained lightly with cresyl violet and analyzed using brightfield and darkfield microscopy. […]

Compound	Luminescence / mRNA delivery in liver versus spleen [1]	Detection of expressed firefly protein by immunohistochemistry [2]	Detection of FFL mRNA in liver, dark field illumination, antisense probe [3]
CC(C)CCCC(C)C1CCC2C3CC=C4CC(OC(=O)CCc5cnc[nH]5)CCC4(C)C3CCC12C [ICE, (3S,10R,13R,17R)-10,13-dimethyl-17-((R)-6-methylheptan-2-yl)-2,3,4,7,8,9,10,11,12,13,14,15,16,17-tetradecahydro-1H-cyclopenta[a]phenanthren-3-yl 3-(1H-imidazol-4-yl)propanoate]	enriched delivery of mRNA to liver versus spleen	–	–
FFL mRNA: Codon-optimized firefly luciferase messenger RNA, SEQ ID NO: 1, with 5′ Cap1 and 3′ poly(A) tail of approximately 200 nucleotides	–	can be observed in the hepatocytes of treated mice	detected as bright spots
